Laboratory results from patent US7985765B2, “Therapeutic substituted pyrroles” (Allergan, Inc., priority 2008, dated 2011).

Tests used:
EP4 = EP4 (Homo sapiens, UniProt P35408); assay: EP4 binding (Ki)
From the text: (§1) US 2007/0129552, incorporated by reference herein, describes the methods used to obtain the in vitro data in the table below.

hDP = target: T1, hDP (Homo sapiens, UniProt Q13258); assay: Other receptors functional assay, hDP; assay type: cell-based
T1 sequence (Q13258 1-359): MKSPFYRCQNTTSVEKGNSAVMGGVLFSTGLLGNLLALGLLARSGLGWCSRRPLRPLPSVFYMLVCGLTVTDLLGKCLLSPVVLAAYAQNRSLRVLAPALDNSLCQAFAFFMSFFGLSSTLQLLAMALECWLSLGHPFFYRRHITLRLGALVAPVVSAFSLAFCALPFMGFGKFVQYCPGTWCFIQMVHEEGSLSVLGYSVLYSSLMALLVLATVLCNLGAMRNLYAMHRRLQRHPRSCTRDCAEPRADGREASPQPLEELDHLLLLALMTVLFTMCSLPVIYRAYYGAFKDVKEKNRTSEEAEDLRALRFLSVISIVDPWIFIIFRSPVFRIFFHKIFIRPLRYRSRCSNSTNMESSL
From the text: as §1

EP2 [1] = target: T2, EP2 (Homo sapiens, UniProt P43116); assay: EP2 binding (Ki)
From the text: as §1

EP2 [2] = target: T2, EP2; assay: EP2 cAMP assay; assay type: cell-based
From the text: as §1

EP2 [3] = target: T2, EP2; assay: EP2 flipr functional assay; assay type: cell-based
From the text: as §1

T2 sequence (P43116 whole entry): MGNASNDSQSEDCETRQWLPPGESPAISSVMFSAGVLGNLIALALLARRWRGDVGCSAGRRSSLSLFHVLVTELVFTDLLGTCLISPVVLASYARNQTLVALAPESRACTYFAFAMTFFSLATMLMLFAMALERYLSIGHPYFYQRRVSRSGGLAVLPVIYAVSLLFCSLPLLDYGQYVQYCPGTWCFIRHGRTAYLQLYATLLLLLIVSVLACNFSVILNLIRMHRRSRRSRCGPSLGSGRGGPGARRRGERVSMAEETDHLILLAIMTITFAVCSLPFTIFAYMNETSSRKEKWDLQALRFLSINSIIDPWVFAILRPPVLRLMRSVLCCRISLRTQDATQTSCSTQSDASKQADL
Chain of EP4 (P35408 whole entry): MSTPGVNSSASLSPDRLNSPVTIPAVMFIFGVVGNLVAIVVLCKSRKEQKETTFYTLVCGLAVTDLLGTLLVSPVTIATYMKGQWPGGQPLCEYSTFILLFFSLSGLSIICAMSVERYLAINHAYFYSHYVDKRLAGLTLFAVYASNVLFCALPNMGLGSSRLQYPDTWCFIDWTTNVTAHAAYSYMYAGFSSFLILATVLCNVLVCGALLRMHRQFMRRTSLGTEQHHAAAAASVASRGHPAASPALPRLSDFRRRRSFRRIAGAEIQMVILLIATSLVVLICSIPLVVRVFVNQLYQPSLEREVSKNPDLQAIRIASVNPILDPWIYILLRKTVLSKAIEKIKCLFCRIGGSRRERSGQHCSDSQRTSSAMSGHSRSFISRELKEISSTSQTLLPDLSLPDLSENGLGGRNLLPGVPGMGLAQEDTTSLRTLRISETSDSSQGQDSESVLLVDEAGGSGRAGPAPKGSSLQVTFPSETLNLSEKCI

`CCCCCCc1ccc(-n2cccc2CCCc2ccc(C(=O)O)s2)cc1` [Example 1, 5-(3-(1-(4-hexylphenyl)-1H-pyrrol-2-yl)propyl)thiophene-2-carboxylic acid] gave a Ki (EP4) of 3.98 µM, an EC50 (hDP) of 2190 nM and a Ki (EP2 [1]) of 0.046 µM. The EC50 (EP2 [2]) was 0.0007 µM and the EC50 (EP2 [3]) was 2.82 µM.
